Data on three substances can be found in patent US8198321B2, “Anti-microorganism terpenic composition” (priority 2006, dated 2012).

A value given as a limit tells only on which side of the number the result lay.

Assay [1] relates to HIV-1Bal (R5-tropic). As to the kind of experiment: Test for inhibition of macrophage infection. Type of assay: cell-based. The text has this:
(§1) In order to carry out cytotoxicity and infection-inhibiting activity tests, three cell types and two viral strains were used. This involved a laboratory strain HIV-1NDK(X4-tropic) which was amplified by lymphocytes originating from healthy donors, and a primary strain HIV-1Bal (R5-tropic) which was amplified by macrophages.
(§2) As regards the cell types, macrophages and dendritic cells were obtained from peripheral blood mononuclear cells. In addition, lymphocytes were provided.
(§3) As regards the inhibitory activity, the macrophages or the dendritic cells are incubated with viral particles of the abovementioned strains, HIV-1NDK(X4-tropic) or HIV-1Bal (R5-tropic), in the presence and absence of the terpenic compositions. The cells are subsequently washed and then put back in culture and, finally, centrifuged. The supernatants are then recovered and the viral particles are lyzed in order to measure the concentration of a viral protein using the ELISA assay. In this way, the inhibitory activity of the terpenic compositions is evaluated by comparison between the nontreated infected cells and the treated infected cells.
(§4) Next, the inhibition of the infection of the macrophages was evaluated. Since the latter are potential reservoirs for HIV, it is a question of measuring the ability of the terpenic composition to prevent infection of the macrophages.

Assay [2] relates to HIV-1NDK (X4-tropic). As to the kind of experiment: Test for inhibition of macrophage infection. The assay is classed as cell-based.
Excerpt: as §1, §2, §3, §4

The test system of assay [3] is HIV-1Bal (R5-tropic). As to the kind of experiment: Test for inhibition of dendritic cell infection. The assay is classed as cell-based.
Excerpt: as §1, §2, §3
(§5) Furthermore, tests were carried out on the inhibition of dendritic cell infection, since these cells are involved in HIV transmission at the mucosal level.

Assay [4] deals with HIV-1NDK (X4-tropic). The assay can be described thus: Test for inhibition of dendritic cell infection. The assay is classed as cell-based.
Excerpt: as §1, §2, §3, §5

For assay [5], the system named is HIV-1Bal (R5-tropic). As to the kind of experiment: Test for inhibition of transfer from dendritic cells to T lymphocytes. The assay is classed as cell-based. As for the experimental part:
(§6) In addition, tests for transfer of the virus, from the dendritic cells to autologous T lymphocytes, i.e. T lymphocytes originating from the same stem cells, were carried out.
(§7) For this, dendritic cells are transferred and incubated with each of the terpenic compositions and the virus. Next, after washing, autologous T lymphocytes are added in a ratio of one dendritic cell to five T lymphocytes. The concentration of viral proteins of the abovementioned type is then evaluated by means of the ELISA assay.
(§8) Dendritic cells express, at their surface, an adhesion protein, DC-SIGN, which forms a viral receptor capable of capturing HIV and of facilitating the infection of permissive cells via a “trans-infection” mechanism. This is because the DC-SIGN receptor can interact with the envelope of HIV and hold the virion in an infectious state so as to subsequently transmit it to permissive T lymphocytes in the adjacent lymph nodes.

Assay [6] has as its system HIV-1NDK (X4-tropic). Described as above. Type of assay: cell-based. As for the experimental part:
as §6, §7, §8

For assay [7], the system named is X4 strains. The assay can be described thus: Direct activity on X4 strains (noninfectious / detergent activity). Set-up: species or system HIV-1. Conditions: diluted to 1/100th.
The mark [8] stands for this setting: diluted to 1/2000th, listed as Fourth.
Where [9] appears, read: diluted to 1/2000th, listed as fourth preparation.
The mark [10] stands for this setting: diluted to 1/200th, listed as Third.
[11] abbreviates: diluted to 1/200th, listed as third preparation.

In the case of “zinc cinnamo-camphorate [Fourth preparation]”, the “inhibition of macrophage infection, HIV-1Bal (R5-tropic)” value is given as greater than 90% in assay [1] (setting [8]) and “the same results” in assay [1] (setting [9]). The “inhibition of macrophage infection, HIV-1NDK (X4-tropic)” value in assay [2] (setting [8]) is on record as greater than 90%; in assay [2] (setting [9]), “the same results”. Moreover, the “inhibition of dendritic cell infection, HIV-1Bal (R5-tropic)” value in assay [3] (diluted to 1/2000th) is 0%. Moreover, the “inhibition of dendritic cell infection, HIV-1NDK (X4-tropic)” value in assay [4] (diluted to 1/2000th) came out at 0%. Also, the “inhibition of transfer from dendritic cells to T lymphocytes, HIV-1Bal (R5-tropic)” value in assay [5] (diluted to 1/2000th) was determined as 0%. For the same substance, the “inhibition of transfer from dendritic cells to T lymphocytes, HIV-1NDK (X4-tropic)” value in assay [6] (diluted to 1/2000th) was determined as 0%.
In the case of “zinc aceto-salicylo-borneolate [Fifth preparation]”, the “inhibition of infection of macrophages with strains of the R5-tropic group” value in assay [1] (diluted to 50%) is listed as “more than 50%”.
For the substance “zinc ascorbo-camphorate [Third preparation]”, the “inhibition of macrophage infection, HIV-1Bal (R5-tropic)” value in assay [1] (setting [10]) is on record as greater than 95%; in assay [1] (setting [11]), “more than 95%”; in assay [1] (diluted to 1/2000th), “the same results”. Besides, the “inhibition of macrophage infection, HIV-1NDK (X4-tropic)” value in assay [2] (setting [10]) is recorded as greater than 95%; in assay [2] (setting [11]) it was “more than 95%”; in assay [2] (diluted to 1/2000th) it was “the same results”. In addition, the “inhibition of dendritic cell infection, HIV-1Bal (R5-tropic)” value was greater than 95% in assay [3] (setting [10]) and “more than 95%” in assay [3] (setting [11]). Further, the “inhibition of dendritic cell infection, HIV-1NDK (X4-tropic)” value in assay [4] (setting [10]) is greater than 95%; in assay [4] (setting [11]) it was “more than 95%”. For the same substance, the figures for the “inhibition of transfer from dendritic cells to T lymphocytes, HIV-1Bal (R5-tropic)” value in assay [5] (setting [10]), in assay [5] (setting [11]) and in assay [5] (diluted to 1/2000th) were greater than 95%, “more than 95%” and “the same results”, respectively. For the same substance, the results for the “inhibition of transfer from dendritic cells to T lymphocytes, HIV-1NDK (X4-tropic)” value in assay [6] (setting [10]) and in assay [6] (setting [11]) were greater than 95% and “more than 95%”, respectively. In addition, the “detergent activity with respect to the X4 strains” value in assay [7] is on record as “has a detergent activity”. For the same substance, in assay [7], the “rendering the X4 strains noninfectious” value is recorded as “capable of rendering the X4 strains noninfectious”.
